Results from the NIST ThermoML archive (doi:10.1016/j.fluid.2019.112248).
Several values for one entry are separate records, joined by “and”; a condition that tells them apart may be missing. Identical values can stand only once. ± gives the expanded uncertainty stated by the source.

Tests used:
[1] = Molar enthalpy of transition or fusion; conditions: DSC
[2] = for vapor or sublimation pressure: Liquid, Closed cell (Static) method; for Normal melting temperature: DTA
[3] = molar heat capacity at constant pressure; conditions: 101.33 kPa, Liquid, DSC
[4] = Boiling temperature at pressure P; conditions: 100 kPa; Glass; DTA

Structure (SMILES)	vapor or sublimation pressure ([2]; 273.7 K)	vapor or sublimation pressure ([2]; 278.19 K)	vapor or sublimation pressure ([2]; 283.19 K)	vapor or sublimation pressure ([2]; 288.19 K)	vapor or sublimation pressure ([2]; 293.2 K)	vapor or sublimation pressure ([2]; 298.2 K)	vapor or sublimation pressure ([2]; 303.2 K)	vapor or sublimation pressure ([2]; 308.21 K)	molar heat capacity at constant pressure ([3]; 265 K) [J/K/mol]	molar heat capacity at constant pressure ([3]; 270 K) [J/K/mol]	molar heat capacity at constant pressure ([3]; 275 K) [J/K/mol]	molar heat capacity at constant pressure ([3]; 280 K) [J/K/mol]	molar heat capacity at constant pressure ([3]; 285 K) [J/K/mol]	molar heat capacity at constant pressure ([3]; 290 K) [J/K/mol]	molar heat capacity at constant pressure ([3]; 295 K) [J/K/mol]	molar heat capacity at constant pressure ([3]; 300 K) [J/K/mol]	molar heat capacity at constant pressure ([3]; 305 K) [J/K/mol]	molar heat capacity at constant pressure ([3]; 310 K) [J/K/mol]	molar heat capacity at constant pressure ([3]; 315 K) [J/K/mol]	molar heat capacity at constant pressure ([3]; 320 K) [J/K/mol]	further results
C=C(C)[C@H]1CC=C(C)C(=O)C1 [d-carvone]	0.001141 ± 0.00015 kPa	0.001788 ± 0.00016 kPa and 0.001789 ± 0.00016 kPa and 0.00179 ± 0.00016 kPa	0.002902 ± 0.00019 kPa and 0.002899 ± 0.00019 kPa and 0.002893 ± 0.00019 kPa	0.004581 ± 0.00024 kPa	0.007151 ± 0.00032 kPa and 0.007137 ± 0.00032 kPa	0.0109 ± 0.00045 kPa	0.01637 ± 0.00058 kPa and 0.01638 ± 0.00058 kPa	0.02413 ± 0.00072 kPa and 0.02415 ± 0.00072 kPa	264.9 ± 10	266.7 ± 10	268.7 ± 10	270.6 ± 10	272.9 ± 11	275.2 ± 11	277.7 ± 11	280.3 ± 11	282.7 ± 11	284.9 ± 11	287.1 ± 11	289.5 ± 11	Molar enthalpy of transition or fusion ([1]; Crystal): 2.68 ± 0.0956 kcal/mol; vapor or sublimation pressure ([2]; 258.18 K): 0.000197 ± 0.00013 kPa and 0.000202 ± 0.00013 kPa and 0.000201 ± 0.00013 kPa; vapor or sublimation pressure ([2]; 263.19 K): 0.000371 ± 0.00014 kPa and 0.000373 ± 0.00014 kPa; vapor or sublimation pressure ([2]; 268.18 K): 0.000653 ± 0.00014 kPa and 0.000656 ± 0.00014 kPa; vapor or sublimation pressure ([2]; 268.19 K): 0.000653 ± 0.00014 kPa; vapor or sublimation pressure ([2]; 273.19 K): 0.001096 ± 0.00015 kPa and 0.001097 ± 0.00015 kPa; vapor or sublimation pressure ([2]; 273.69 K): 0.001133 ± 0.00015 kPa and 0.001138 ± 0.00015 kPa; vapor or sublimation pressure ([2]; 288.2 K): 0.004579 ± 0.00024 kPa and 0.004587 ± 0.00024 kPa; vapor or sublimation pressure ([2]; 298.21 K): 0.0109 ± 0.00045 kPa; Normal melting temperature ([2]; Crystal): -26.4 ± 0.5 °C; molar heat capacity at constant pressure ([3]; 325 K): 292.1 ± 11 J/K/mol; molar heat capacity at constant pressure ([3]; 330 K): 294.3 ± 11 J/K/mol; molar heat capacity at constant pressure ([3]; 335 K): 296.5 ± 12 J/K/mol; molar heat capacity at constant pressure ([3]; 340 K): 298.2 ± 12 J/K/mol; molar heat capacity at constant pressure ([3]; 345 K): 299.7 ± 12 J/K/mol; molar heat capacity at constant pressure ([3]; 350 K): 301.1 ± 12 J/K/mol; molar heat capacity at constant pressure ([3]; 355 K): 302 ± 12 J/K/mol
C=CCc1ccc(O)c(OC)c1 [2-hydroxy-5-allylanisole]	0.000153 ± 0.00014 kPa and 0.000152 ± 0.00014 kPa	0.000252 ± 0.00014 kPa and 0.000251 ± 0.00014 kPa	0.000451 ± 0.00014 kPa and 0.000443 ± 0.00014 kPa and 0.000444 ± 0.00014 kPa	0.000724 ± 0.00015 kPa and 0.000725 ± 0.00015 kPa and 0.000723 ± 0.00015 kPa	0.001256 ± 0.00016 kPa and 0.001233 ± 0.00016 kPa and 0.001223 ± 0.00016 kPa	0.00193 ± 0.00017 kPa and 0.001938 ± 0.00017 kPa and 0.001934 ± 0.00017 kPa	0.00307 ± 0.0002 kPa and 0.003081 ± 0.0002 kPa and 0.003077 ± 0.0002 kPa	0.004864 ± 0.00025 kPa and 0.004868 ± 0.00025 kPa	311.2 ± 12	312.8 ± 12	314.5 ± 12	315.8 ± 12	317.4 ± 12	319.2 ± 12	321 ± 12	322.9 ± 12	324.8 ± 13	326.4 ± 13	328.2 ± 13	329.9 ± 13	Boiling temperature at pressure P [4]: -81.7 ± 0.3 °C; Molar enthalpy of transition or fusion ([1]; Crystal 1): 4.06 ± 0.263 kcal/mol; Molar enthalpy of transition or fusion ([1]; Crystal 2): 2.01 ± 0.143 kcal/mol; vapor or sublimation pressure ([2]; 308.2 K): 0.004871 ± 0.00025 kPa; Normal melting temperature ([2]; Crystal 1): -11.3 ± 0.5 °C; Normal melting temperature ([2]; Crystal 2): -28.5 ± 0.5 °C; molar heat capacity at constant pressure ([3]; 325 K): 331.7 ± 13 J/K/mol; molar heat capacity at constant pressure ([3]; 330 K): 333.3 ± 13 J/K/mol; molar heat capacity at constant pressure ([3]; 335 K): 334.8 ± 13 J/K/mol; molar heat capacity at constant pressure ([3]; 340 K): 336.1 ± 13 J/K/mol; molar heat capacity at constant pressure ([3]; 345 K): 337.1 ± 13 J/K/mol; molar heat capacity at constant pressure ([3]; 350 K): 338.2 ± 13 J/K/mol; molar heat capacity at constant pressure ([3]; 355 K): 339.1 ± 13 J/K/mol
